Assay results published in patent US10183015B2, “Heterocyclic compounds and methods of use” (Medivation Technologies LLC, priority 2015, dated 2019).
“And” between values parts separate entries of the source, which are not always exact repeats. Equal entries are not always repeated.

Assays:
HepG2 cells = assay: HepG2 cell viability under serum-free conditions (MTS); type: cell-based; conditions: Homo sapiens
Procedure: Cancer cells such as HepG2 cells depend on SREBP activation and de novo lipogenesis to survive, particularly in low serum or serum-free conditions. Using this model, compounds were screened over 24 hours for the ability to block cleavage of SREBP to its active form and over 72 hours for an effect on cell viability under serum-free conditions.
For viability measurements, HepG2 cells were seeded at 5,000 cells per well in 96-well plates in DMEM supplemented with 10% FBS. After 1 day in culture, cells were treated with compounds (20 μM & 5 μM) for 3 days in DMEM without FBS. Viability was measured by MTS […]. […]

SCD1 = assay: Short-term Paigen-diet NASH mouse model: hepatic SCD1 gene expression (RT-qPCR); type: in vivo; conditions: SCD1 relative expression to vehicle group, 21 days
Procedure: (§1) To investigate whether Compound #37 prevents the development of pathology associated with NASH and steatosis in an acute exploratory disease model, a study was conducted using a diet-induced acute liver steatosis model in mice. As described below, in this study, C57BL/6J mice were initiated on the Paigen diet and simultaneously treated with Compound #37 (5, 20, and 40 mg/kg/day) or vehicle control (20% HPβCD 10 mL/kg/day) by oral gavage for 21 days.
(§2) After acclimation, 8-week old male C57Bl/6J mice (Charles River) weighing about 25 g were randomized in 4 groups according their body weight and treated once daily around noon by oral gavage with vehicle, or Compound #37 at various for 21 days as follows: Group 1: vehicle-20% (2-hydroxypropyl)-β-cyclodextrin (HP-β-CD) (n=10); Group 2: Compound #37, 5 mg/kg (n=10) Group 3: Compound #37, 20 mg/kg (n=10) Group 4: Compound #37, 40 mg/kg (n=10). During the treatment period, body weight and food intake (measured over 24h) were measured 3 times per week and once a week, respectively. During the acclimation, all mice were fed a standard diet (Special Diets Services RM1 (E), product no. 801492) and tap water ad libitum. After the acclimation period, mice were fed until the end of the experiment with a 60% high fat Paigen diet (60 kcal % fat, 1.25% cholesterol, and 0.5% cholate; D11061901, Research Diet) and tap water ad libitum.
(§3) Gene expression analysis. Hepatic expression levels of genes involved in lipid metabolism (FAS, SREBP1, ACC1, SCD1), cholesterol metabolism (HMG-CoAR, LDLR), SREBP proteolysis (SCAP, INSIG1), ER stress (PERK), oxidative stress (NRF2), inflammation (MCP-1), and fibrosis (collagen 1α1) were quantified by RTqPCR. Expression level was normalized to 18S gene expression and relative expression to vehicle group was calculated with the […] method.

INSIG1 = assay: Short-term Paigen-diet NASH mouse model: hepatic INSIG1 gene expression (RT-qPCR); type: in vivo; conditions: liver, 21 days; for DDct: INSIG1 Dct relative to vehicle mean; for Dct: INSIG1 minus 18S; for 2DDct: INSIG1 relative expression to vehicle group, normalized to 18S; for INSIG1: raw RT-qPCR value
Procedure: as §1, §2, §3

[1] = test system: 60% high fat Paigen diet induced NASH mouse model; assay: Short-term Paigen-diet NASH mouse model: NAFLD (NAS) score histopathology; type: in vivo; set-up: NAS score: total / NAS score: steatose / NAS score: inflammation / NAS score: fibrosis / NAS score: hepatocyte ballooning: scale not given here
Procedure: To investigate whether Compound #37 prevents the development of pathology associated with NASH and steatosis in an acute exploratory disease model, a study was conducted using a diet-induced acute liver steatosis model in mice. […]
as §2, with “or Compound #37 at various for 21 days as follows: Group 1: vehicle-20%” left out
NAFLD score analysis. A 0.5 cm^3 piece of liver was fixed in 10% formalin for 48-72h, stored in ethanol 70° at 4° C., and processed for eosin/hematoxylin staining and NAFLD score analysis. One section (thickness 3-5 μm) per block was deposited on Superfrost+slides for hematoxylin-eosin staining. Individual slides having a single hepatic lobe section stained with H&E were digitized using a Nanozoomer from Hamamatsu. Sections were evaluated with knowledge of groups. Each section was evaluated and individually scored. A NAFLD scoring system (NAS) adapted from Kleiner et al. (Hepatology 41, 1313-21, 2005), Wu et al. (BMC Vet. Res. 10, 162, 2014), and Lee et al. (J. Lipid Res. 48, 1885-96, 2007). A total of four variables were qualitatively assessed and ranked with a score: (1) hepatocellular steatosis, (2) liver inflammation, (3) lobular fibrosis, and (4) hepatocyte ballooning.

[2] = Compound #37 5 mg/kg, group mean, n=10
[3] = Compound #37 5 mg/kg, individual animals, 5 mg/kg
[4] = Compound #37 20 mg/kg, group mean, n=6
[5] = Compound #37 20 mg/kg, individual animals, 20 mg/kg
[6] = 5 mg/kg, 21 days, group mean, n 10
[7] = 20 mg/kg, 21 days, group mean, n 6
[8] = 40 mg/kg, 9 days, group mean, n 4

## CC(C)Cc1cc(-c2nc(-c3ccc(NS(=O)(=O)C(F)(F)F)cc3Cl)cs2)ccn1 [Compound 37, N-(3-chloro-4-(2-(2-isobutylpyridin-4-yl)thiazol-4-yl)phenyl)-1,1,1-trifluoromethanesulfonamide]
HepG2 cells; HepG2, 72 h, 5 μM, 3 days, DMEM without FBS, read-out: Average Viability (% Inhibition, n = 3)
  cytotoxicity at 5 µM: 94%
HepG2 cells; HepG2, 72 h, 20 μM, 3 days, DMEM without FBS, read-out: Average Viability (% Inhibition, n = 3)
  cytotoxicity at 20 µM: 95%
HepG2 cells; HepG2, serum-free, read-out: IC50 for decreased viability of HepG2 cells
  IC50: 2100 nM
SCD1; 5 mg/kg, group mean
  2DDct: 1.05
SCD1; 5 mg/kg, individual animals, 5 mg/kg
  2DDct: 2.96 and 0.99 and 0.66 and 2.02 and 0.77 and 0.22 and 0.93 and 0.76 and 0.6 and 0.59
SCD1; 20 mg/kg, group mean
  2DDct: 1.18
SCD1; 20 mg/kg, individual animals, 20 mg/kg
  2DDct: 0.98 and 0.47 (2×) and 0.88 and 2.28 and 2
INSIG1; [2]
  DDct: 0.28
  Dct: 12
  2DDct: 0.87
  INSIG1: 24.2
INSIG1; [3]
  DDct: −0.58 and 0.21 and 0.48 and −0.03 and 0.34 and 1.45 and 0.09 and 0.52 and 0.32 and 0.05
  Dct: 11.1 and 11.89 and 12.16 and 11.65 and 12.02 and 13.13 and 11.77 and 12.2 and 12 and 11.73
  2DDct: 1.5 and 0.87 and 0.72 and 1.02 and 0.79 and 0.37 and 0.94 and 0.7 and 0.8 and 0.97
  INSIG1: 24.56 and 25 (2×) and 23.77 and 24.05 and 26.48 and 23.37 and 23.99 and 23.14 and 22.85
INSIG1; [4]
  DDct: 0.15
  Dct: 11.8
  2DDct: 0.99
  INSIG1: 24
INSIG1; [5]
  DDct: 0.5 and 0.75 and 0.51 and −0.67 and 0.62 and −0.76
  Dct: 12.18 and 12.43 and 12.19 and 11.01 and 12.3 and 10.92
  2DDct: 0.71 and 0.6 and 0.7 and 1.6 and 0.65 and 1.7
  INSIG1: 25.09 and 24.72 and 24.39 and 24.04 and 23.79 and 22.18
[1]; 5 mg/kg, 21 days
  animals with Grade 1 hepatocellular steatosis: 9/10
  animals with grade-3 inflammation: 4/10
  animals with limited periportal fibrosis (mostly Grade 1): 10/10
[1]; [6]
  NAS score: fibrosis: 1.2
  NAS score: hepatocyte ballooning: 0.3
  NAS score: inflammation: 2
  NAS score: steatose: 1.1
  NAS score: total: 4.6
[1]; 5 mg/kg, 21 days, individual animals
  NAS score: total: 4 (2×) and 5 (4×) and 3 (2×) and 6 (2×)
[1]; 20 mg/kg, 21 days
  animals with Grade 1 hepatocellular steatosis: 3/6
  animals with grade-3 inflammation: 1/6
  animals with limited periportal fibrosis (mostly Grade 1): 3/6
[1]; [7]
  NAS score: fibrosis: 0.5
  NAS score: hepatocyte ballooning: 0
  NAS score: inflammation: 1.67
  NAS score: steatose: 0.5
  NAS score: total: 2.67
[1]; 20 mg/kg, 21 days, individual animals
  NAS score: total: 2 (2×) and 3 (2×) and 5 and 1
[1]; [8]
  NAS score: fibrosis: 0
  NAS score: hepatocyte ballooning: 1
  NAS score: inflammation: 0
  NAS score: steatose: 2
  NAS score: total: 3
[1]; 40 mg/kg, 9 days, individual animals
  NAS score: total: 3
